According to US20150150878A1, “Methods For Inhibiting Viruses By Targeting Cathepsin-L Cleavage Sites In The Viruses' Glycoproteins” (priority 2012, published 2015):
“And” between values parts separate entries of the source, which are not always exact repeats. Equal values may be shown once. Where a name gives a salt, the structure may show the parent alone. Read-outs that look alike come from different tables or passages of the source. Residues, ends and D or L forms follow the SMILES beside them. *: point of attachment. Cbz = O=C(OCc1ccccc1)*

Columns and labels:
[1] = system: SARS-CoV pseudotyped virus; assay type: cell-based
[2] = system: EBOV-GP pseudotyped virus; assay: microbe, parasite or virus in culture; assay type: cell-based, Ebola virus; details: for inhibition at 10 µM: read-out: inhibition of EBOV pseudotyped virus entry; for IC50: read-out: IC50 against EBOV pseudotyped virus
[3] = system: SARS-CoV-S pseudotyped virus; assay: microbe, parasite or virus in culture; assay type: cell-based; details: for inhibition at 10 µM: read-out: inhibition of SARS-CoV pseudotyped virus entry; for IC50: read-out: IC50 against SARS-CoV-S pseudotyped virus
cathepsin L [4] = target: T1, cathepsin L (Homo sapiens, UniProt P07711); assay type: biochemical; parameters: human cathepsin L purified from human liver (Sigma Aldrich); purchased Sigma Aldrich; host or cells: human liver (tissue-purified)
T1 sequence (P07711 114-333): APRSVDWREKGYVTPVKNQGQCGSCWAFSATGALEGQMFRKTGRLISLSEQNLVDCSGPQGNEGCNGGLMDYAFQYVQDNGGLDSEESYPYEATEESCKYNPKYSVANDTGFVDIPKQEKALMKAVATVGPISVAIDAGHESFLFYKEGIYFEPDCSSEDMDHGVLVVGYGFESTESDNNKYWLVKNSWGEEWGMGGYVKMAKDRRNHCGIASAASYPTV

cathepsin L [5] = target: T1, cathepsin L; assay type: biochemical; parameters: human cathepsin L purified from human liver (Sigma Aldrich); purchased Sigma Aldrich; host or cells: human liver (tissue-purified); remark: listed apart in the source
cathepsin L [6] = target: T1, cathepsin L; assay type: biochemical; parameters: human cathepsin L purified from human liver (Sigma Aldrich); purchased Sigma Aldrich; host or cells: human liver (tissue-purified); remark: listed apart in the source
cathepsin L [7] = target: T1, cathepsin L; assay type: biochemical; parameters: human cathepsin L purified from human liver (Sigma Aldrich); purchased Sigma Aldrich; host or cells: human liver (tissue-purified); remark: listed apart in the source
cathepsin L [8] = target: T1, cathepsin L; assay type: biochemical; parameters: human cathepsin L purified from human liver (Sigma Aldrich); purchased Sigma Aldrich; host or cells: human liver (tissue-purified); remark: listed apart in the source
cathepsin L [9] = target: T1, cathepsin L; assay type: biochemical
cathepsin L [10] = target: T1, cathepsin L; assay type: biochemical; remark: listed apart in the source
[11] = Severe acute respiratory syndrome coronavirus, 72 h

SMILES | inhibition of SARS-CoV pseudotyped virus entry [1] | inhibition at 10 µM ([2]; Zaire ebolavirus, 72 h) [%] | inhibition at 10 µM [3, 11] [%] | Inhibition of cleavage of SARS peptide by Cathepsin-L (cathepsin L [4]) [%] | percentage inhibition against SARS peptide (cathepsin L [4]) [%] | Inhibition of cleavage of Ebola peptide by Cathepsin-L (cathepsin L [5]) [%] | percentage inhibition against Ebola peptide (cathepsin L [5]) [%] | Inhibition of cleavage of Nipah peptide by Cathepsin-L (cathepsin L [6]) [%] | percentage inhibition against Nipah peptide (cathepsin L [6]) [%] | Inhibition of cleavage of Hendra peptide by Cathepsin-L (cathepsin L [7]) [%] | percentage inhibition against Hendra peptide (cathepsin L [7]) [%] | Inhibition of cleavage of NPY peptide by Cathepsin-L (cathepsin L [8]) [%] | percentage inhibition against human Pro-NPY peptide (cathepsin L [8]) [%] | cytotoxic effect on 293FT cells (293FT cells) | also measured
CN(C)C(=O)COC(=O)Cc1ccc(OC(=O)c2ccc(NC(=N)N)cc2)cc1 [protease inhibitor, Camostat mesylate] | 70% |  |  |  |  |  |  |  |  |  |  |  |  |  | 
N#Cc1ccc(NC(=O)Nc2ccc(Cl)cc2)cc1 [Compound 7910528, 1-(4-chlorophenyl)-3-(4-cyanophenyl)urea] |  | 23.3 | 30.3 | 56.5 | 56.5 | 33.4 | 35 | 57.8 | 57.8 | 12.1 | 12.1 | 6.5 | 6.5 |  | 
O=C(Nc1cccc(C(F)(F)F)c1)Nc1ccc(Cl)c(Cl)c1 [Compound 5182554, 1-(3,4-dichlorophenyl)-3-(3-(trifluoromethyl)phenyl)urea] |  | 60.5 | 49.3 | 78.1 | 72.6 | 31 | 77 | 44 | 56.5 | 49.4 | 50.9 | 7.4 | 14.8 | toxic | cytotoxicity (293FT cells; human): 20-100%
O=c1[nH]c2ccc(S(=O)(=O)Nc3ccc(Cl)c(Cl)c3)cc2o1 [Compound 7914021, N-(3,4-dichlorophenyl)-2-oxo-2,3-dihydrobenzo[d]oxazole-6-sulfonamide] |  | 51.5 | 27.1 | 71.7 | 85.2 | 36 | 83.8 | 53.6 | 82 | 25.4 | 52.2 | 13.1 | 21.9 | toxic | cytotoxicity (293FT cells; human): 20-100%
COC(=O)CN(C#N)c1nc(NC(C)C)nc(NC(C)C)n1 [Compound 5705213, methyl 2-(N-(4,6-bis(isopropylamino)-1,3,5-triazin-2-yl)cyanamido)acetate] | 50% and 60% | 39.8 | 64.7 | 79.8 | 90.1 | 42 | 81.3 | 76.3 | 90.7 | 84.3 | 94.2 | 18 | 20 |  | IC50 ([2]; Zaire ebolavirus, 72 h): 15 µM; IC50 [3, 11]: 9 µM; inhibition of Cat L mediated cleavage of SARS-CoV-S-flag protein (cathepsin L [9]): dose dependent inhibition; change of Vmax in presence of the inhibitor (cathepsin L [10]): decrease; mechanism of inhibition (cathepsin L [10]): mixed inhibitor; cell viability (293FT cells; human): over 80%
O=C[C@H](Cc1ccc(O)cc1)NC(=O)[C@H](Cc1ccccc1)NC(=O)OCc1ccccc1 [cathepsin L inhibitor, Z-Phe-Tyr-CHO] (Cbz-Phe-Tyr-aldehyde) | 60% and 58% |  |  |  |  |  |  |  |  |  |  |  |  |  | 
CCNc1nc(NC(C)(C)C)nc(N(C#N)CC(=O)OC)n1 [Compound 7402683, methyl 2-(N-(4-(tert-butylamino)-6-(ethylamino)-1,3,5-triazin-2-yl)cyanamido)acetate] |  |  |  |  |  |  |  |  |  |  |  |  |  | no significant cytotoxicity | inhibition of EBOV pseudotyped virus entry ([2]; 10 µM): 53.3%; IC50 [2]: 10 µM; inhibition of SARS-CoV pseudotyped virus entry ([3]; 10 µM): 68.3%; IC50 [3]: 6 µM; inhibition of Cat L mediated cleavage of SARS-CoV-S-flag protein (cathepsin L [9]): dose dependent inhibition
